Measured values: ChEMBL document CHEMBL1201862, “PubChem BioAssay data set” (2004)
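Cultured in 96-well plates, cells were exposed to test compound for 48 hours across five concentrations. Abbreviation: GI50, concentration required for 50% inhibition of growth.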 Active and inactive are the calls of the source. Cut-off read from the data, not from the text of the source: active = GI50 up to about 1.1 µM and inactive = higher.

Columns and labels:
Assay in all cases: NCI tumour cell line growth inhibition, 48 h
T47D = test system: T47D
NCI-H460 = test system: NCI-H460
SK-OV-3 = test system: SK-OV-3
EKVX = test system: EKVX
SF-539 = test system: SF-539
SF-295 = test system: SF-295
HT-29 = test system: HT-29
MOLT-4 = test system: MOLT-4
SN12C = test system: SN12C
HCT-116 = test system: HCT-116
SW-620 = test system: SW-620
A549 = test system: A549
MDA-N = test system: MDA-N
LOX IMVI = test system: LOX IMVI
COLO 205 = test system: COLO 205
RPMI-8226 = test system: RPMI-8226
CAKI-1 = test system: CAKI-1
NCI-H522 = test system: NCI-H522

Measured: GI50

CC12CP(=O)(c3ccccc3)CC1c1ccccc1C2c1ccccc1 (centres undefined)
inactive: T47D 16.4 µM | NCI-H460 14.5 µM | SK-OV-3 40.1 µM | EKVX 17.9 µM | SF-539 17.8 µM | SF-295 15.6 µM | HT-29 15.5 µM | MOLT-4 11.4 µM | SN12C 17.9 µM | HCT-116 14.3 µM | SW-620 17 µM | A549 16.4 µM | MDA-N 16.6 µM

CC(C)CC(Nc1c(O)ccc2ccccc12)C(=O)O (centres undefined)
inactive: LOX IMVI 31.7 µM | T47D 64.7 µM | NCI-H460 35.2 µM | SK-OV-3 27.2 µM | COLO 205 > 100 µM | EKVX 17.3 µM | SF-539 16.7 µM | SF-295 20.5 µM | HT-29 81.8 µM | MOLT-4 33 µM | SN12C 29.3 µM | RPMI-8226 28.2 µM | CAKI-1 21.2 µM | HCT-116 27.9 µM | SW-620 34.4 µM | NCI-H522 26.3 µM | A549 > 100 µM

NC1CC(=O)c2cc(Br)sc21 (centres undefined)
inactive: T47D > 100 µM | NCI-H460 > 100 µM | SK-OV-3 > 100 µM | COLO 205 > 100 µM | EKVX > 100 µM | SF-539 > 100 µM | HT-29 > 100 µM | MOLT-4 > 100 µM | SN12C > 100 µM | RPMI-8226 > 100 µM | CAKI-1 > 100 µM | HCT-116 > 100 µM | SW-620 > 100 µM | A549 > 100 µM | MDA-N > 100 µM

N=c1oc2ccc3ccccc3c2cc1C(N)=O
inactive: LOX IMVI 31.2 µM | T47D 22.6 µM | NCI-H460 46.3 µM | SK-OV-3 96.2 µM | COLO 205 48.6 µM | HT-29 38.7 µM | MOLT-4 48.6 µM | SN12C 39.8 µM | RPMI-8226 > 100 µM | CAKI-1 43.5 µM | HCT-116 36.9 µM | SW-620 44 µM | A549 64.6 µM | MDA-N 37.1 µM

COc1ccc(/C=C2/S/C(=N\c3ccccc3)N(NC(=O)Cc3ccccc3)C2=O)c(OC)c1
inactive: T47D 43.9 µM | NCI-H460 > 100 µM | SK-OV-3 > 100 µM | COLO 205 > 100 µM | EKVX > 100 µM | SF-539 > 100 µM | SF-295 > 100 µM | HT-29 > 100 µM | MOLT-4 68.7 µM | SN12C > 100 µM | RPMI-8226 > 100 µM | HCT-116 > 100 µM | SW-620 > 100 µM | A549 > 100 µM | MDA-N > 100 µM
